In patent publication US20250176598A1, “AMIDE COMPOUNDS AND THEIR USE AS FLAVOR MODIFIERS” (Firmenich Incorporated, priority 2022, published 2025):

Target: T1, T1R umami taste receptor (Homo sapiens, UniProt Q7RTX0+Q7RTX1)
T1 sequence (Q7RTX1 21-841): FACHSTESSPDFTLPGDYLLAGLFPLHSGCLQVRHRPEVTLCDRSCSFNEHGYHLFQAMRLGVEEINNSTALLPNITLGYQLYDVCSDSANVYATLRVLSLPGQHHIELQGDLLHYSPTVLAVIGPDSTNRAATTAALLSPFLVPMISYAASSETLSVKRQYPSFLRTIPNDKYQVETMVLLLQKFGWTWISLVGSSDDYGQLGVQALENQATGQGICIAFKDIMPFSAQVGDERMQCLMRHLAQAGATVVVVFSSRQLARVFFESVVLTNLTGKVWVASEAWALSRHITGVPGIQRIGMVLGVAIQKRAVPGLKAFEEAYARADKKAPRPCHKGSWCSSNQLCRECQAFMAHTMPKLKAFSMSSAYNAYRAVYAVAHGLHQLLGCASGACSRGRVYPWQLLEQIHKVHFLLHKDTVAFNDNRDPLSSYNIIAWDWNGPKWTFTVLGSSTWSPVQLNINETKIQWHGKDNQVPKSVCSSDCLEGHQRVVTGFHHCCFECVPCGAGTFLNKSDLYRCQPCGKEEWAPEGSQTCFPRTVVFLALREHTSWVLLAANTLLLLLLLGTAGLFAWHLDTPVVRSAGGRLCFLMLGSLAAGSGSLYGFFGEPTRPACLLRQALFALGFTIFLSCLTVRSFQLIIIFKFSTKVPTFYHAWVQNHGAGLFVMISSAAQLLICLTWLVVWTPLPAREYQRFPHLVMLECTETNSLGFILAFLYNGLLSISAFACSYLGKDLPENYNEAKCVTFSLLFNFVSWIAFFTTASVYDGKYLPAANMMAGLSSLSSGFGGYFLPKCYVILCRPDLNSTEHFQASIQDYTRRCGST
T1 sequence (Q7RTX0 21-852): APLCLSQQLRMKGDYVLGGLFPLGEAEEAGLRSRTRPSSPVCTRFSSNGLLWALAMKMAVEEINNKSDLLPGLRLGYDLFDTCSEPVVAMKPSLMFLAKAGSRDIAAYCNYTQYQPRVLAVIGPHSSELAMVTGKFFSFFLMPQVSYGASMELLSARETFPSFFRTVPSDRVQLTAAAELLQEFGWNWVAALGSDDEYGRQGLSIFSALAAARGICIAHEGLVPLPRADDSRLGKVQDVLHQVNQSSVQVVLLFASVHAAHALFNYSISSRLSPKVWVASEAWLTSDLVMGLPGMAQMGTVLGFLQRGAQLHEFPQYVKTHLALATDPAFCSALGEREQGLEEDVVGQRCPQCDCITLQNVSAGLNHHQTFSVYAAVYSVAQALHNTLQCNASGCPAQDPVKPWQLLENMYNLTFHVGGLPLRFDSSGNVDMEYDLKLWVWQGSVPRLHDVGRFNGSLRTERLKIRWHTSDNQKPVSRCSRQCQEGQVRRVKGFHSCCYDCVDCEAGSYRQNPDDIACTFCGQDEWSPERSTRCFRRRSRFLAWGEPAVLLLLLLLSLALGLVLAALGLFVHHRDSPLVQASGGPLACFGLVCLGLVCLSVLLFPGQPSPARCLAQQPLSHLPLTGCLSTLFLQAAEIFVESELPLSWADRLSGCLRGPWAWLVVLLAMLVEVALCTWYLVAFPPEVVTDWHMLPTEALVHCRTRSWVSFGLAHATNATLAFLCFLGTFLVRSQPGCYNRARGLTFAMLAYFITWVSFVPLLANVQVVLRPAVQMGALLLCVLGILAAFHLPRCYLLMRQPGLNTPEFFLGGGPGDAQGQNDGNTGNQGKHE
Experiment: in vitro cell-based assay, cells expressing the T1R umami taste receptor; enhancement of MSG
Details: for MSG Enh. Ratio: MSG enhancement ratio at a particular concentration (concentration not given); for EC50: cells that express the T1R umami taste receptor, dose-binding curves
Description: Each of Compounds 101-145 was synthesized according to one of the general procedures set forth above in Examples 1 and Example 2. Thereafter, the compounds were tested in an in vitro cell-based assay having cells that express the T1R umami taste receptor. Dose-binding curves were recorded and the EC50 was determined for enhancement of MSG binding. Table 2 sets forth the calculated EC50 values for certain tested compounds as well as the MSG enhancement ratio at a particular concentration.

| MSG Enh. Ratio | EC50 | Structure (SMILES) | MSG Enh. Ratio @ [10 uM] (compound at 10 uM) |
| --- | --- | --- | --- |
| 1.3 | > 50 µM | Cc1ccc(C(=O)N[C@H](Cc2ccccc2)C(=O)O)cc1 [Compound 120, (4-methylbenzoyl)-D-phenylalanine] | – |
| 2.0 | > 50 µM | COc1ccc(C[C@H](NC(=O)c2ccc(C)c(C)c2)C(=O)O)cc1 [Compound 127, (S)-2-(3,4-dimethylbenzamido)-3-(4-methoxyphenyl) propanoic acid] | – |
| 1.2 | > 50 µM | Cc1ccc(C(=O)N[C@@H](C(=O)O)C(C)C)cc1C [Compound 124, (3,4-dimethylbenzoyl)-D-valine] | – |
| 1.0 | > 50 µM | COc1ccc(/C=C/C(=O)N[C@@H](CCC(=O)O)C(=O)O)cc1O [Compound 143, (E)-(3-(3-hydroxy-4-methoxyphenyl)acryloyl)-L-glutamic acid] | – |
| – | > 50 µM | COc1ccc(/C=C/C(=O)N[C@H](CCC(=O)O)C(=O)O)cc1O [Compound 144, (E)-(3-(3-hydroxy-4-methoxyphenyl)acryloyl)-D-glutamic acid] | – |
| 1.8 | > 50 µM | O=C(N[C@H](CO)Cc1ccccc1)c1ccc2c(c1)OCO2 [Compound 111, (S)-N-(1-hydroxy-3-phenylpropan-2-yl) benzo[d][1,3]dioxole-5-carboxamide] | – |
| 1.3 | > 50 µM | Cc1ccc(C(=O)N[C@H](Cc2ccccc2)C(=O)O)cc1C [Compound 125, (3,4-dimethylbenzoyl)-D-phenylalanine] | – |
| 2.8 | > 50 µM | Cc1ccc(C(=O)N[C@H](CO)CC(C)C)cc1C [Compound 104, (S)-N-(1-hydroxy-4-methylpentan-2-yl)-3,4-dimethylbenzamide] | – |
| 1.8 | > 50 µM | COc1ccc(/C=C/C(=O)N[C@@H](Cc2ccc(OC)cc2)C(=O)O)cc1 [Compound 140, (S,E)-3-(4-methoxyphenyl)-2-(3-(4-methoxyphenyl)acrylamido)propanoic acid] | – |

| Structure (SMILES) | MSG Enh. Ratio | EC50 | MSG Enh. Ratio @ [10 uM] (compound at 10 uM) |
| --- | --- | --- | --- |
| COc1ccc(/C=C/C(=O)N[C@H](CO)Cc2ccccc2)cc1 [Compound 116, (S,E)-3-(4-methoxyphenyl)-N-(1-hydroxy-3-phenylpropan-2-yl)acrylamide] | – | 11 µM | 6.9 @ [10 uM] |
